US12617760B2, “[(5-phenyl-1-heteroaryl-1H-triazol-3-yl)oxy] acetic acid derivatives as safeners for the protection of useful plants and crop plants” (BAYER AKTIENGESELLSCHAFT, priority 2020, dated 2026)

System: summer barley (HORVS)
Test: Reduction of damage by mesosulfuron-methyl on summer barley (safener greenhouse test, post-emergence)
Assay type: in vivo, summer barley (HORVS; cv. Montoya)
Design: key: 0: no reduction in damage (appearance corresponding to the herbicide control); 1: slight reduction in damage; 2: distinct reduction in damage; 3: significant reduction in damage; 4: complete reduction in damage (appearance corresponding to the untreated control)
Details: safener dose 500 g/ha, sprayed at BBCH10-12, followed by mesosulfuron-methyl 40-60 g/ha, visual assessment 9-13 days after application, 2 repeats
Description: 2.1 Relative Action of Selected Compounds of the Invention Using the Example of Reduction of Damage by Mesosulfuron-Methyl on Summer Barley (HORVS) The seeds of the crop plants to be treated are laid out in sandy loam in plastic pots (diameter ˜4 cm), covered with soil and grown in a greenhouse under good conditions for germination and growth. The trial plants were treated at the early leaf stage (BBCH10-BBCH12). In the course of this, the inventive compounds of the general formula (I) formulated in the form of wettable powders (WP) were sprayed onto the above-ground parts of the plants as an aqueous suspension with a water application rate corresponding to 800 l/ha with addition of wetting agent (e.g. 0.2% Genapol-LRO or 0.2% Mero) in the specified dose. This was followed by the application of the herbicide. For this purpose, mesosulfuron-methyl, formulated in the form of water-dispersible granules (WG), was sprayed onto the above-ground parts of the plants in the form of an aqueous dispersion with a water application rate corresponding to 800 l/ha with addition of wetting agent (e.g. 0.2% Genapol-LRO or 1 l/ha Biopower) in a dose of 40-60 g/ha. […] 9-13 days after application, the efficacy of the test compounds was assessed visually. […]

COC(=O)COc1nc(-c2ccc(F)cc2F)n(-c2ccc(F)cn2)n1 [I.40-11, Methyl {[5-(2,4-difluorophenyl)-1-(5-fluoropyridin-2-yl)-1H-1,2,4-triazol-3-yl]oxy}acetate]
Efficacy of the safener (efficacy code): 2
